We go through ten molecules from patent publication US6150376A, “Bi- and tri-cyclic aza compounds and their uses” (Georgetown University, priority 1998, dated 2000).

Test [1] addresses T1, dopamine transporter (Rattus norvegicus, UniProt P23977).
T1 construct: from tissue
Kind of test: [3H]DA uptake (re-uptake inhibition at the dopamine transporter). It counts as biochemical. As to conditions: for Ki: Ki ± SE, Krebs-Ringer-HEPES buffer; for higher activity / selectivity at the DAT over the 5-HTT: reuptake inhibition, DAT over 5-HTT. The protocol: (§1) Various isomeric forms of front-bridged Compounds 4, 5, 29, 30, 31, 40 and 50a and back-bridged Compounds 41, 42a, 42b, 49a and 50a were assayed for binding at the dopamine transporter and for inhibition of monamine re-uptake at the dopamine, serotonin and norepinephrine transporters. Mazindol binding were measured as previously described in Johnson et. al., 1992, Eur. J. Pharmacol., Mol. Pharmacol. Sect., 227:411-415. Reuptake inhibition was measured essentially as described in Yi et. al., 1991, Neuropharmacol. 29:475-486, except that an identical Krebs-Ringer-HEPES buffer was used for binding and all uptake assays (Slusher et al., 1997, Drug Alcohol Depend. 48:43-50).

In test [2] the target is T1, dopamine transporter. Kind of test: [3H]Mazindol binding at the dopamine transporter. As to conditions: for Ki: Ki ± SE, Krebs-Ringer-HEPES buffer. The protocol: as §1
The target of test [3] is T2, norepinephrine transporter (Rattus norvegicus, UniProt Q63380).
T2 construct: from tissue
T2 sequence (Q63380 1-617): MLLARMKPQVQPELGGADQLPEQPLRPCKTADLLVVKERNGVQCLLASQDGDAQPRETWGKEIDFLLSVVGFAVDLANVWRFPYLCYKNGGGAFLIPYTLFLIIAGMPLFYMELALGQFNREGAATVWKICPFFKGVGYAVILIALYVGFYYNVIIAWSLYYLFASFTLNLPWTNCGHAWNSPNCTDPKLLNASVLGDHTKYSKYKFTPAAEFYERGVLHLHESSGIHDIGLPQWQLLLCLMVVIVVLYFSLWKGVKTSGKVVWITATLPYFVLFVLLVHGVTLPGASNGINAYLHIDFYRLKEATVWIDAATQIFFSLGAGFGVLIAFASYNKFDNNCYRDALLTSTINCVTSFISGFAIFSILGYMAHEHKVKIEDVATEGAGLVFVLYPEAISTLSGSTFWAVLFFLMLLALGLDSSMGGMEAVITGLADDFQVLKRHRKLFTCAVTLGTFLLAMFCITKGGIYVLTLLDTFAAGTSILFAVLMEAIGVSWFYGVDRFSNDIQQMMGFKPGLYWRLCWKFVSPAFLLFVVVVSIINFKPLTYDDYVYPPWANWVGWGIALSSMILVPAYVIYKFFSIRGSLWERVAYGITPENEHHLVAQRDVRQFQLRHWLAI
Kind of test: [3H]NE uptake (re-uptake inhibition at the norepinephrine transporter). It counts as biochemical. As to conditions: Ki ± SE; Krebs-Ringer-HEPES buffer. The protocol: as §1

Test [4] has as its target T3, serotonin transporter (Rattus norvegicus, UniProt P31652).
T3 construct: from tissue
Kind of test: [3H]5-HT uptake (re-uptake inhibition at the serotonin transporter). The test is classed as biochemical. As to conditions: for Ki: Ki ± SE, Krebs-Ringer-HEPES buffer; for 5-HT/DA (ratio of uptake Ki): ratio of 5-HT uptake Ki to DA uptake Ki. The protocol:
as §1

The test system of test [5] is serotonin and norepinephrine re-uptake. As to conditions: in words; cited from earlier work.
For test [6] the following is noted: Preskorn, 1994; cited from earlier work.

T3 sequence (P31652 whole entry): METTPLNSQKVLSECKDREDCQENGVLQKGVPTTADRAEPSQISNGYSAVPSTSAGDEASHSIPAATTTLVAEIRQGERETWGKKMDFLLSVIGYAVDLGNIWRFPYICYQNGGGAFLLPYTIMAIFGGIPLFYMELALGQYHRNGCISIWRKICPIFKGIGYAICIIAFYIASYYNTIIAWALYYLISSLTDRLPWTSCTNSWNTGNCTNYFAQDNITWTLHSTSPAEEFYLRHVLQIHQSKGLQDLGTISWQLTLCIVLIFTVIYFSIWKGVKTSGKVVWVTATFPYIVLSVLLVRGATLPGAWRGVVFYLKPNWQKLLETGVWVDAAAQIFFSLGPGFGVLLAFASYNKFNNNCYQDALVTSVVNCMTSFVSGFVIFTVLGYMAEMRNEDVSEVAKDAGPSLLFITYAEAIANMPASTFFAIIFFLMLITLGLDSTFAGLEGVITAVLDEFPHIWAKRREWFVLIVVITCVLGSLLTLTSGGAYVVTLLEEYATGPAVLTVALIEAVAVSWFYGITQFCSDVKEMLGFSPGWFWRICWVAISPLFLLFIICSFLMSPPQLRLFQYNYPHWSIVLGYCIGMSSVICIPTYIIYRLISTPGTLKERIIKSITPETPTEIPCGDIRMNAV
T1 sequence (P23977 whole entry): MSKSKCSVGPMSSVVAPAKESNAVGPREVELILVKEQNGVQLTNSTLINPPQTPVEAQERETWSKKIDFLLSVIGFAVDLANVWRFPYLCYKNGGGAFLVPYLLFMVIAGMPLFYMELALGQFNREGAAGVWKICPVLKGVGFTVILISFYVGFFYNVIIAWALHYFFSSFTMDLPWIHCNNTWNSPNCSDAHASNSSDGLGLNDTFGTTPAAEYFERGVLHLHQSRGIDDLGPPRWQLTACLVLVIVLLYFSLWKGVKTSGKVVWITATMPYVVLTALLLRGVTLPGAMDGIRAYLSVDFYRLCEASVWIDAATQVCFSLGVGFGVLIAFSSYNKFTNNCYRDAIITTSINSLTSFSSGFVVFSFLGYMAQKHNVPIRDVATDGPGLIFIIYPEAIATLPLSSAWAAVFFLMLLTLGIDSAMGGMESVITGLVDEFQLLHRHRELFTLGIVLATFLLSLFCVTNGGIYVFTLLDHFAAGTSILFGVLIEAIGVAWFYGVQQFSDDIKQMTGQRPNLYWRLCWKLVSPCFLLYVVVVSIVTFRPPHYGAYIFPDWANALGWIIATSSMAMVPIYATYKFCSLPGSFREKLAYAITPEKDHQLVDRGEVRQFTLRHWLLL

The Ki is the equilibrium dissociation constant of an inhibitor or competing ligand from its target. The low end stands for a stronger hold on the target, the high end for a looser hold on the target. In the case of `O=C1CN2CCC(c3ccc(Cl)cc3)C1C2` (stereo not drawn) [Compound (-)-4], the Ki in test [1] came out at 16500 ± 970 nM; in test [2], 10500 ± 930 nM; in test [3] it was 70900 ± 18000 nM; in test [4] it was 1890 ± 440 nM. Besides, the “5-HT/DA (ratio of uptake Ki)” value in test [4] came out at 0.11. Besides, the “more active at the 5-HTT (5-HTT/NET selectivity)” value in test [4] (reuptake inhibition, 5-HTT over NET) was determined as 38 fold.

On to `Cc1ccc(C2CC3CCC4C2c2ccccc2CN34)cc1` (racemic) [Compound 45], for which the Ki in test [1] amounted to 23.9 ± 1.33 nM; in test [2], 6.86 ± 0.43 nM; in test [3], 1.06 ± 0.03 nM; in test [4], 1.77 nM. In test [4], the “5-HT/DA (ratio of uptake Ki)” value is 0.074.

Consider `CCCC[C@@H]1CC[C@@H]2C3CN[C@H]2C[C@@]31c1ccc(C)cc1` (racemic) [Compound 42a, (1SR, 3SR, 4RS, 5SR, 7RS)-4-butyl-3-(4-methylphenyl)-10-azatricyclo[5.3.0.0^3,8]decane], for which the Ki in test [1] turned out to be 2.23 ± 0.12 nM; in test [2], 4 ± 0.07 nM; in test [3], 2.99 ± 0.17 nM; in test [4], 14 ± 0.58 nM. Besides, the “5-HT/DA (ratio of uptake Ki)” value in test [4] amounted to 6.3.

As to `C=C1CN2C3CCC2C1C(c1ccc(C)cc1)C3` (racemic) [Compound (±)-40], the inhibition constant (Ki) in test [1] came to 60.3 nM; in test [2], 61.7 ± 8.5 nM; in test [3], 2.69 ± 0.12 nM; in test [4], 2.32 ± 0.23 nM. Moreover, the “binding potency relative to (-)-40” value in test [2] (in words) is on record as “only slightly decreased from that of the (-)-40”. Besides, the “5-HT/DA (ratio of uptake Ki)” value in test [4] was found to be 0.038.

On to `COc1ccc(C(CN(C)C)C2(O)CCCCC2)cc1` (stereo not drawn) [venlafaxine], for which, in test [5], the “selectivity for serotonin (dual serotonin and norepinephrine re-uptake inhibitor)” value is given as “five-fold selectivity for serotonin”. In addition, in test [6], the “time to full antidepressant effect” value is 4 to 7 days.

For `O=C1CN2CCC(c3ccc(Cl)cc3)C1C2` (stereo not drawn) [Compound (-)-5], the Ki in test [1] was determined as 9050 ± 460 nM; in test [2], 9740 ± 160 nM; in test [3] it was 4650 ± 440 nM; in test [4], 11900 ± 610 nM. The “higher activity / selectivity at the DAT over the 5-HTT” value in test [1] is 1.3 fold. The “5-HT/DA (ratio of uptake Ki)” value in test [4] is listed as 1.3.

Take `O=C1CN2CCC(c3ccc(Cl)cc3)C1C2` (stereo not drawn) [Compound (+)-4]: the Ki was determined as 27600 ± 1000 nM in test [1], 18500 ± 2700 nM in test [2], 38300 ± 4610 nM in test [3] and 4630 ± 760 nM in test [4]. Moreover, the “5-HT/DA (ratio of uptake Ki)” value in test [4] is listed as 0.16.

With “(1R, 2S, 4R, 7S)-(-)-10-methylene-2-(p-tolyl)-8-azatricyclo [5.2.0.0^4.8 ] decane [Compound (-)-40]”, the Ki in test [1] was 60.3 ± 0.4 nM; in test [2], 54.3 ± 10.2 nM; in test [3], 5.24 ± 0.07 nM; in test [4] it was 1.76 nM. Besides, the “5-HT/DA (ratio of uptake Ki)” value in test [4] worked out at 0.029.

Take `O=C1CN2CCC(c3ccc(Cl)cc3)C1C2` (stereo not drawn) [Compound (+)-5]: the Ki in test [1] was 10500 ± 450 nM; in test [2], 6770 ± 500 nM; in test [3], 4530 ± 410 nM; in test [4], 25100 ± 3600 nM. Moreover, in test [1], the “higher activity / selectivity at the DAT over the 5-HTT” value is given as 2.4 fold. In test [4], the “5-HT/DA (ratio of uptake Ki)” value was found to be 2.4.

Regarding “(1SR, 2SR, 3RS, 5RS, 7SR)-2-butyl-methylphenyl)-10-azatricyclo [5.3.0.0^5,10 ]decane [Compound 50a]”, the Ki turned out to be 149 ± 2.13 nM in test [1], 149 ± 5.75 nM in test [2], 51.7 ± 12 nM in test [3] and 810 ± 79.5 nM in test [4]. Further, the “5-HT/DA (ratio of uptake Ki)” value in test [4] is on record as 5.4.
